The text below walks through data of patent US9695205B2, “Amide compounds for treatment of complement mediated disorders” (Achillion Pharmaceuticals, Inc., priority 2014, dated 2017).

Structures are written as SMILES.

This assay concerns the target Human factor D (Homo sapiens (Human), UniProt P00746). Kind of assay: Human Factor D Assay. It is filed as biochemical. The settings on record: Human factor D 80 nM, substrate Z-L-Lys-SBzl and DTNB 100 μM each, pH 7.5. The method, then:
Example 14. Human Factor D Assay
Human factor D (purified from human serum, Complement Technology, Inc.) at 80 nM final concentration is incubated with test compound at various concentrations for 5 minutes at room temperature in 50 mM Tris, 1M NaCl, pH 7.5. A synthetic substrate Z-L-Lys-SBzl and DTNB (Ellman's reagent) are added to final concentrations of 100 μM each. The increase in color is recorded at OD405 nm in a microplate in kinetic mode over 30 minutes with 30 second time points in a spectrofluorimeter. IC50 values are calculated by non-linear regression from the percentage of inhibition of complement factor D activity as a function of test compound concentration.

Sequence of Human factor D (P00746 26-253): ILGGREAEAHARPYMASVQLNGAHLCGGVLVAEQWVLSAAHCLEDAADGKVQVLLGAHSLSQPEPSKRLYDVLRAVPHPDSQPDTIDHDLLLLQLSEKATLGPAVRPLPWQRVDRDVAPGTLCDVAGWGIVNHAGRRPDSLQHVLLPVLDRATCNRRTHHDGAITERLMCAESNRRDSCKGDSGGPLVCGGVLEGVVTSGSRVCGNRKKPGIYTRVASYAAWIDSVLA

The term IC50 denotes the concentration that inhibits the measured activity by half. High values mean a need for much substance, low ones inhibition by little substance. As for `CC(=O)c1cn(CC(=O)N2[C@@H]3C[C@@H]3C[C@H]2C(=O)N[C@H](C)c2cccc(Cl)c2F)c2ccc(NC(=O)NC3CC3)cc12` [Compound 5, (1R,3S,5R)-2-(2-(3-acetyl-5-(3-cyclopropylureido)-1H-indol-1-yl)acetyl)-N-((R)-1-(3-chloro-2-fluorophenyl)ethyl)-2-azabicyclo[3.1.0]hexane-3-carboxamide], the IC50 is under 1000 nM. In the case of `NC(=O)c1nn(CC(=O)N2C[C@H](F)C[C@H]2C(=O)Nc2cccc(-c3ccccc3Cl)c2F)c2ccc(NC(=O)N3CCC(F)(F)CC3)cc12` [Compound 31, 1-(2-((2S,4R)-2-(2′-chloro-2-fluorobiphenyl-3-ylcarbamoyl)-4-fluoropyrrolidin-1-yl)-2-oxoethyl)-5-(4,4-difluoropiperidine-1-carboxamido)-1H-indazole-3-carboxamide], the IC50 is under 1000 nM.

In the case of `CC(=O)c1cn(CC(=O)N2C[C@H](F)C[C@H]2C(=O)NCc2cccc(Cl)c2F)c2cc(C(=O)N3CCC(C(=O)O)C3)ccc12` (stereo partly drawn) [Compound 52, 1-(3-acetyl-1-(2-((2S,4R)-2(3-chloro-2-fluorobenzylcarbamoyl)-4-fluoropyrrolidin-1-yl)-2-oxoethyl)-1H-indole-6-carbonyl) pyrrolidine-3-carboxylic acid], the IC50 was under 1000 nM.

As to `NC(=O)c1nn(CC(=O)N2C[C@H](F)C[C@H]2C(=O)Nc2cccc(-c3ccccc3Cl)c2F)c2ccc(NC(=O)N3CCC(F)(F)C3)cc12` [Compound 30, 1-(2-((2S,4R)-2-(2′-chloro-2-fluorobiphenyl-3-ylcarbamoyl)-4-fluoropyrrolidin-1-yl)-2-oxoethyl)-5-(3,3-difluoropyrrolidine-1-carboxamido)-1H-indazole-3-carboxamide], the 50% inhibitory concentration (IC50) is under 1000 nM. The compound `CC(=O)c1cn(CC(=O)N2C[C@H](F)C[C@H]2C(=O)NCc2cccc(Cl)c2F)c2cc(C(=O)NCC3CCN(C(=O)OC(C)(C)C)C3)ccc12` (some centres unmarked) [Compound 50] gave an IC50 of under 1000 nM. With `CC(=O)c1cn(CC(=O)N2C[C@H](F)C[C@H]2C(=O)NCc2cccc(Cl)c2F)c2ccc(NC(=O)OCC3CC3)cc12` [Compound 15, cyclopropylmethyl 3-acetyl-1-(2-((2S,4R)-2-(3-chloro-2-fluorobenzylcarbamoyl)-4-fluoropyrrolidin-1-yl)-2-oxoethyl)-1H-indol-5-ylcarbamate], the IC50 is under 1000 nM. On to `CC(=O)c1cn(CC(=O)N2C[C@H](F)C[C@H]2C(=O)NCc2cccc(Cl)c2F)c2ccc(NC(=O)NC3(C)CC3)cc12` [Compound 4, (2S,4R)-1-(2-(3-acetyl-5-(3-(1-methylcyclopropyl)ureido)-1H-indol-1-yl)acetyl)-N-(3-chloro-2-fluorobenzyl)-4-fluoropyrrolidine-2-carboxamide], for which the IC50 is under 1000 nM.

Regarding `NC(=O)c1nn(CC(=O)N2[C@@H]3C[C@@H]3C[C@H]2C(=O)Nc2cccc(OC(F)(F)F)c2F)c2ccc(NC(=O)N3CCCC(F)(F)C3)cc12` [Compound 27, 5-(3,3-difluoropiperidine-1-carboxamido)-1-(2-((1R,3S,5R)-3-(2-fluoro-3-(trifluoromethoxy)phenylcarbamoyl)-2-azabicyclo[3.1.0]hexan-2-yl)-2-oxoethyl)-1H-indazole-3-carboxamide], the IC50 is under 1000 nM. As for `COC(=O)C1CCN(C(=O)c2ccc3c(C(C)=O)cn(CC(=O)N4C[C@H](F)C[C@H]4C(=O)NCc4cccc(Cl)c4F)c3c2)C1` (stereo partly drawn) [Compound 51, methyl 1-(3-acetyl-1-(2-((2S,4R)-2-(3-chloro-2-fluorobenzylcarbamoyl)-4-fluoropyrrolidin-1-yl)-2-oxoethyl)-1H-indole-6-carbonyl)pyrrolidine-3-carboxylate], the half-inhibitory concentration (IC50) was under 1000 nM. In the case of `NC(=O)c1nn(CC(=O)N2C[C@H](F)C[C@H]2C(=O)Nc2cccc(OC(F)(F)F)c2F)c2ccc(NC(=O)N3CCCC(F)(F)C3)cc12` [Compound 26, 5-(3,3-difluoropiperidine-1-carboxamido)-1-(2-((2S,4R)-4-fluoro-2-(2-fluoro-3-(trifluoromethoxy)phenylcarbamoyl)pyrrolidin-1-yl)-2-oxoethyl)-1H-indazole-3-carboxaide] it was under 1000 nM. `NC(=O)c1nn(CC(=O)N2[C@@H]3C[C@@H]3C[C@H]2C(=O)Nc2cccc(Br)n2)c2ccc(NC(=O)N3CCCC(F)(F)C3)cc12` [Compound 34, 1-(2-((1R,3S,5R)-3-(6-bromopyridin-2-ylcarbamoyl)-2-azabicyclo[3.1.0]hexan-2-yl)-2-oxoethyl)-5-(3,3-difluoropiperidine-1-carboxamido)-1H-indazole-3-carboxamide] yielded an IC50 of under 1000 nM. For the compound `CC(=O)c1cn(CC(=O)N2C[C@H](F)C[C@H]2C(=O)NCc2cccc(Cl)c2F)c2cc(C(=O)N[C@H]3CCN(C(C)=O)C3)ccc12` [Compound 46, 3-acetyl-N-((S)-1-acetylpyrrolidin-3-yl)-1-(2-((2S,4R)-2-(3-chloro-2-fluorobenzylcarbamoyl)-4-fluoropyrrolidin-1-yl)-2-oxoethyl)-1H-indole-6-carboxamide], the IC50 was under 1000 nM. Regarding `CC(=O)c1cn(CC(=O)N2C[C@H](F)C[C@H]2C(=O)NCc2cccc(Cl)c2F)c2cc(C(=O)NS(=O)(=O)c3ccccc3)ccc12` [Compound 53], the concentration for half-maximal inhibition (IC50) was under 1000 nM.

`CC(=O)c1cn(CC(=O)N2C[C@H](F)C[C@H]2C(=O)NCc2cccc(Cl)c2F)c2cc(C(=O)NS(C)(=O)=O)ccc12` [Compound 43, 3-acetyl-1-(2-((2S,4R)-2-(3-chloro-2-fluorobenzylcarbamoyl)-4-fluoropyrrolidin-1-yl)-2-oxoethyl)-N-(methylsulfonyl)-1H-indole-6-carboxamide] returned a half-maximal inhibitory concentration (IC50) of under 1000 nM.

In turn, `NC(=O)c1nn(CC(=O)N2C[C@H](F)C[C@H]2C(=O)Nc2cccc(-c3ncccc3Cl)c2F)c2ccc(NC(=O)N3CCCC(F)(F)C3)cc12` [Compound 29, 1-(2-((2S,4R)-2-(3-(3-chloropyridin-2-yl)-2-fluorophenylcarbamoyl)-4-fluoropyrrolidin-1-yl)-2-oxoethyl)-5-(3,3-difluoropiperidine-1-carboxamido)-1H-indazole-3-carboxamide] yielded an IC50 of under 1000 nM.

`CC(=O)c1cn(CC(=O)N2C[C@H](F)C[C@H]2C(=O)NCc2cccc(Cl)c2F)c2ccc(C(=O)N3CCCC(F)(F)C3)cc12` [Compound 40, (2S,4R)-1-(2-(3-acetyl-5-(3,3-difluoropiperidine-1-carbonyl)-1H-indol-1-yl)acetyl)-N-(3-chloro-2-fluorobenzyl)-4-fluoropyrrolidine-2-carboxamide] yielded an IC50 of under 1000 nM. In the case of `CC(=O)c1cn(CC(=O)N2C[C@H](F)C[C@H]2C(=O)NCc2cccc(Cl)c2F)c2ccc(NC(=O)N3Cc4cncnc4C3)cc12` [Compound 22, N-(3-acetyl-1-(2-((2S,4R)-2-(3-chloro-2-fluorobenzylcarbamoyl)-4-fluoropyrrolidin-1-yl)-2-oxoethyl)-1H-indol-5-yl)-5H-pyrrolo[3,4-d]pyrimidine-6(7H)-carboxamide] it was under 1000 nM. `NC(=O)c1nn(CC(=O)N2C[C@H](F)C[C@H]2C(=O)Nc2cccc(-c3ccccc3Cl)c2F)c2ccc(NC(=O)N3CCCC(F)(F)C3)cc12` [Compound 24, 1-(2-((2S,4R)-2-(2′-chloro-2-fluorobiphenyl-3-ylcarbamoyl)-4-fluoropyrrolidin-1-yl)-2-oxoethyl)-5-(3,3-difluoropiperidine-1-carboxamido)-1H-indazole-3-carboxamide] yielded an IC50 of under 1000 nM. `CC(=O)c1cn(CC(=O)N2[C@@H]3C[C@@H]3C[C@H]2C(=O)Nc2cccc(OC(F)(F)F)c2F)c2ccc(NC(=O)NC3CC3)cc12` [Compound 11, (1R,3S,5R)-2-(2-(3-acetyl-5-(3-cyclopropylureido)-1H-indol-1-yl)acetyl)-N-(2-fluoro-3-(trifluoromethoxy)phenyl)-2-azabicyclo[3.1.0]hexane-3-carboxamide]: the concentration for half-maximal inhibition (IC50) is under 1000 nM.

`NC(=O)c1nn(CC(=O)N2C[C@H](F)C[C@H]2C(=O)Nc2cccc(OC(F)(F)F)c2F)c2ccc(NC(=O)Nc3ccon3)cc12` [Compound 25, 1-(2-((2S,4R)-4-fluoro-2-(2-fluoro-3-(trifluoromethoxy)phenylcarbamoyl)pyrrolidin-1-yl)-2-oxoethyl)-5-(3-isoxazol-3-ylureido)-1H-indazole-3-carboxamide] returned a half-maximal inhibitory concentration (IC50) of under 1000 nM. In the case of `NC(=O)c1nn(CC(=O)N2C[C@H](F)C[C@H]2C(=O)Nc2cccc(-c3ccccc3Cl)c2F)c2ccc(NC(=O)NCc3ncccn3)cc12` [Compound 32, 1-(2-((2S,4R)-2-(2′-chloro-2-fluorobiphenyl-3-ylcarbamoyl)-4-fluoropyrrolidin-1-yl)-2-oxoethyl)-5-(3-(pyrimidin-2-ylmethyl)ureido)-1H-indazole-3-carboxamide] it was under 1000 nM; in that of `CC(=O)c1cn(CC(=O)N2C[C@H](F)C[C@H]2C(=O)NCc2cccc(Cl)c2F)c2cc(C(=O)N[C@H]3CCNC3)ccc12` [Compound 45, 3-acetyl-1-(2-((2S,4R)-2-(3-chloro-2-fluorobenzylcarbamoyl)-4-fluoropyrrolidin-1-yl)-2-oxoethyl)-N-((S)-pyrrolidin-3-yl)-1H-indole-6-carboxamide], under 1000 nM; in that of `CC(=O)c1cn(CC(=O)N2C[C@H](F)C[C@H]2C(=O)NCc2cccc(Cl)c2F)c2ccc(NC(=O)N3CCCC(F)(F)C3)cc12` [Compound 16, N-(3-acetyl-1-(2-((2S,4R)-2-(3-chloro-2-fluorobenzylcarbamoyl)-4-fluoropyrrolidin-1-yl)-2-oxoethyl)-1H-indol-5-yl)-3,3-difluoropiperidine-1-carboxamide], under 1000 nM.
